Results published in patent US11016101B2, “Simplified nuclei analysis platform and biomarker matrix that supports genotoxic mode of action determinations” (Litron Laboratories, Ltd., priority 2013, dated 2021).
Entries after “also recorded” stand apart in the source; their conditions may differ. Counter-ions that a name gives are not always drawn. Like-named read-outs stand apart in the source and are kept apart here.

Tests used:
[1] = test system: TK6 cells; experiment: In vitro micronucleus assay (In Vitro MICROFLOW kit)
Procedure: The in vitro micronucleus assay is a chromosomal damage test that is widely used to evaluate chemical and/or physical agents for clastogenic and aneugenic activity. […] Furthermore, in the usual conduct of the in vitro micronucleus assay, the discrimination of bona fide genotoxic activity as primarily occurring through a clastogenic or aneugenic mode of action is not readily obtained.
For these experiments, each of the 20 chemicals was tested over closely spaced concentrations, 6 replicate wells per concentration. Three wells were used for the micronucleus analyses, and three wells were used for the several nuclear biomarker assessments of the type described in Example 1. Other endpoints of cytotoxicity were considered, including […], ethidium monoazide bromide (EMA) positive events as an indicator of membrane integrity, tetramethylrhodamine ethyl ester (TMRE) negative cells as an assessment of mitochondrial membrane potential, and ATP levels (using luciferase) as an assessment of overall cell health in the sample. […] Further details are described under Statistical Analyses, as well as Example 4 below.
Those cytotoxicity evaluations were based on a conventional approach for assessing cytotoxicity in genotoxicity tests, that is, relative cell counts (which in the case of the flow cytometry-based In Vitro MICROFLOW® kit is accomplished by measuring nuclei to counting bead ratio or else nuclei to time ratio and expressing these values relative to the mean solvent control value). […] The remaining three wells per concentration were used to accomplish a series of nuclei biomarker readings according to the invention, as well as two other assessments of cytotoxicity—frequency of TMRE-negative cells and ATP levels (via Promega's CELL TITERGLO® kit).

[2] = test system: TK6 cells; experiment: Nuclei to bead ratio (relative cell count, cytotoxicity) by flow cytometry; type: cell-based
[3] = test system: TK6 cells; settings: human
[4] = test system: TK6 cells; settings: human; remark: listed apart in the source
Procedure: The TK6 cells used in these experiments were from American Type Tissue Collection (ATCC) (Manassas, Va.). Cells were maintained in culture medium at 37° C., 5% CO2, and in a humid atmosphere. Cells were maintained between approximately 1×10^4 and 1×10^6 cells/ml for routine passage.
For these experiments, TK6 cells were treated with solvent (most often DMSO, 1% v/v) and a range of closely spaced test article concentrations. Treatments occurred in wells of a 96-well plate. At the start of treatment, cells were at 2×10^5/ml in a volume of 300 μl per well. Counting beads (PEAK FLOW™) were included in these cultures at a concentration of approximately 1 drop per 10 ml, and served as a means to derive relative nuclei to bead ratios (relative to solvent controls). Continuous treatment occurred for approximately 24 hrs, during which time plates were incubated at 37° C., 5% CO2, and in a humid atmosphere. Each test article concentration was studied in 3 to 6 replicate wells.
The γH2AX endpoint described herein was studied 4 and/or 24-27 hrs after start of treatment. Each of the remaining endpoints were studied at the conclusion of the treatment period, that is 24 to 27 hrs after initiation of exposure to test article (which for this cell line corresponds to approximately 1.5 to 2.0 population doubling times).
At the time of cell harvest (4 hrs and 24 to 27 hrs), cells were resuspended with gentle pipetting and 25 μl aliquots were transferred to wells of a 96 well plate containing 50 μl pre-aliquoted lysis solution.
After incubation at room temperate for at least 5 minutes, samples were analyzed with a dual-laser flow cytometer, 488 nm and 633 nm excitation (FACSCanto II, BD Biosciences, San Jose, Calif.). Instrumentation settings and data acquisition/analysis were controlled with Diva software v6.1.3. […] The BD Biosciences High Throughput Sampler (HTS) attachment was used to automatically analyze each of the samples in the 96 well plate(s). For the majority of these endpoints and experiments, the stop mode was configured such that each well was analyzed for 5 seconds, which usually represented sufficient time to acquire at least 500 NAD-positive nuclei.
Treatments occurred over a range of closely spaced concentrations.

[5] = test system: TK6 cells; experiment: Cleaved PARP-positive nuclei by flow cytometry; type: cell-based; settings: for PARP-Positive Nuclei (Fold-Increase): 24-27 hours, relative to Control
From the text: (§1) This chemical was also observed to affect cleaved PARP and Caspase 3 levels in nuclei, as evidenced by the higher values of cleaved PARP- and Caspase 3-positive nuclei relative to solvent control wells.

[6] = test system: TK6 cells; experiment: Cleaved caspase 3-positive nuclei by flow cytometry; type: cell-based; settings: for Caspase 3-Positive Nuclei (Fold-Increase): 24-27 hours, relative to Control
From the text: as §1

[7] = test system: TK6 cells; type: cell-based
Procedure: This experiment highlights the ability of the invention to combine multiple nuclei-associated endpoints into one flow cytometric analysis. For this experiment, log-phase TK6 cells were treated with cisplatin over a wide range of concentrations and then incubated at 37° C. for 24 hours. Each concentration was studied in triplicate wells of a 96 well plate. After 24 hours, well contents were pipetted up and down several times to form homogenous suspensions, and 25 μl per well was added to wells of a new 96 well plate that contained 50 μl of working lysis/labeling/staining solution. This lysis/labeling/staining solution was comprised of 5 μl anti-γH2AX-Alexa® 488/ml, 1 μl anti-phospho-H3-PE/ml, 5 μl anti-cleaved PARP-Alexa® 647/ml, 5 μRNase/ml, […] Absolute Count Bead/50 μl

[8] = TK6 cells, continuous exposure 24-27 hrs, In Vitro MICROFLOW kits
[9] = 24-27 hours after start of treatment

In the case of O=c1[nH]cc(F)c(=O)[nH]1 [5-fluorouracil], the “in vitro micronucleus results” value [1] is reported as “positive”.
C[C@@]1(CO)[C@H](O)CC[C@@]2(C)[C@H]1CC[C@H]1C[C@@H]3C[C@@]12CC[C@]3(O)CO [aphidicoline] was tested, and the “in vitro micronucleus results” value [1, 8] was “positive”.
CC[C@]1(O)C[C@@H]2CN(CCc3c([nH]c4ccccc34)[C@@](C(=O)OC)(c3cc4c(cc3OC)N(C)[C@H]3[C@@](O)(C(=O)OC)[C@H](OC(C)=O)[C@]5(CC)C=CCN6CC[C@]43[C@@H]65)C2)C1 [Vinblastine, vinblastine] was tested, and the “nuclei to bead ratios (effect in words)” value [2] was “concentration-dependent reductions”, the “Nuclei to Bead Ratio (% of Control)” value ([2]; human, 0.3 ng/ml) was 98 % of Control and the “Nuclei to Bead Ratio (% of Control)” value ([2]; human, 0.4 ng/ml) was 97 % of Control. For the same molecule, the “Nuclei to Bead Ratio (% of Control)” value ([2]; human, 0.6 ng/ml) was 86 % of Control, the “Nuclei to Bead Ratio (% of Control)” value ([2]; human, 0.8 ng/ml) was 81 % of Control and the “Nuclei to Bead Ratio (% of Control)” value ([2]; human, 1.2 ng/ml) was 71 % of Control. The “Nuclei to Bead Ratio (% of Control)” value ([2]; human, 1.6 ng/ml) was 58 % of Control, the “Phospho-H3+ Nuclei (Fold-Increase)” value ([3]; 0.3 ng/ml) was “.86 Fold-Increase” and the “Phospho-H3+ Nuclei (Fold-Increase)” value ([3]; 0.4 ng/ml) was “.86 Fold-Increase”. For the same molecule, the “Phospho-H3+ Nuclei (Fold-Increase)” value ([3]; 0.6 ng/ml) was 1.23 Fold-Increase, the “Phospho-H3+ Nuclei (Fold-Increase)” value ([3]; 0.8 ng/ml) was 2.11 Fold-Increase and the “Phospho-H3+ Nuclei (Fold-Increase)” value ([3]; 1.2 ng/ml) was 4.85 Fold-Increase. The “Phospho-H3+ Nuclei (Fold-Increase)” value ([3]; 1.6 ng/ml) was 5.41 Fold-Increase and the “in vitro micronucleus results” value [1] was “positive”.
In the case of COS(C)(=O)=O [MMS, methyl methanesulfonate], the “nuclei to bead ratios (effect in words)” value [2] is reported as “concentration-dependent reductions”, the “Nuclei to Bead Ratio (% of Control)” value ([2]; human, 2.344 μg/ml) is reported as 88 % of Control and the “Nuclei to Bead Ratio (% of Control)” value ([2]; human, 3.125 μg/ml) is reported as 87 % of Control. For the same molecule, the “Nuclei to Bead Ratio (% of Control)” value ([2]; human, 4.6875 μg/ml) was 83 % of Control, the “Nuclei to Bead Ratio (% of Control)” value ([2]; human, 6.25 μg/ml) was 78 % of Control and the “Nuclei to Bead Ratio (% of Control)” value ([2]; human, 9.375 μg/ml) was 64 % of Control. For the same molecule, the “Nuclei to Bead Ratio (% of Control)” value ([2]; human, 12.5 μg/ml) was 58 % of Control, the “Phospho-H3+ Nuclei (Fold-Increase)” value ([3]; 2.344 μg/ml) was 1.00 Fold-Increase and the “Phospho-H3+ Nuclei (Fold-Increase)” value ([3]; 3.125 μg/ml) was 0.76 Fold-Increase. The “Phospho-H3+ Nuclei (Fold-Increase)” value ([3]; 4.6875 μg/ml) was 0.67 Fold-Increase, the “Phospho-H3+ Nuclei (Fold-Increase)” value ([3]; 6.25 μg/ml) was 0.71 Fold-Increase and the “Phospho-H3+ Nuclei (Fold-Increase)” value ([3]; 9.375 μg/ml) was 0.76 Fold-Increase. The “Phospho-H3+ Nuclei (Fold-Increase)” value ([3]; 12.5 μg/ml) was 0.65 Fold-Increase, the “in vitro micronucleus results” value [1] was “positive” and the “γH2AX Fluorescence (Fold-Increase)” value ([4]; 2.344 μg/ml) was 3.13 Fold-Increase. The “γH2AX Fluorescence (Fold-Increase)” value ([4]; 3.125 μg/ml) was 4.11 Fold-Increase, the “γH2AX Fluorescence (Fold-Increase)” value ([4]; 4.6875 μg/ml) was 4.36 Fold-Increase and the “γH2AX Fluorescence (Fold-Increase)” value ([4]; 6.25 μg/ml) was 4.92 Fold-Increase. The “γH2AX Fluorescence (Fold-Increase)” value ([4]; 9.375 μg/ml) was 4.79 Fold-Increase and the “γH2AX Fluorescence (Fold-Increase)” value ([4]; 12.5 μg/ml) was 4.80 Fold-Increase.
In the case of N#CC(C#N)=NNc1cccc(Cl)c1 [CCCP, carbonyl cyanide m-chlorophenyl hydrazone], the “Nuclei to Bead Ratio (% of Control)” value ([2]; CCCP 3.125 μM, TK6 cells, 24-27 hours after start of treatment) is reported as 79 % of Control, the “Nuclei to Bead Ratio (% of Control)” value ([2]; CCCP 4.6875 μM, TK6 cells, 24-27 hours after start of treatment) is reported as 69 % of Control and the “Nuclei to Bead Ratio (% of Control)” value ([2]; CCCP 6.25 μM, TK6 cells, 24-27 hours after start of treatment) is reported as 64 % of Control. For the same molecule, the “Nuclei to Bead Ratio (% of Control)” value ([2]; CCCP 9.375 μM, TK6 cells, 24-27 hours after start of treatment) was 59 % of Control, the “Nuclei to Bead Ratio (% of Control)” value ([2]; CCCP 12.5 μM, TK6 cells, 24-27 hours after start of treatment) was 50 % of Control and the “nuclei to bead ratios (effect in words)” value ([2]; TK6 cells, range of closely spaced concentrations, 24-27 hours, indicative of fewer cells and therefore cytotoxicity) was “concentration-dependent reductions”. The “cleaved PARP-positive nuclei relative to solvent control wells (effect in words)” value [5, 9] was “higher values”, the “PARP-Positive Nuclei (Fold-Increase)” value ([5]; CCCP 3.125 μM) was 4.90 Fold-Increase and the “PARP-Positive Nuclei (Fold-Increase)” value ([5]; CCCP 4.6875 μM) was 8.60 Fold-Increase. For the same molecule, the “PARP-Positive Nuclei (Fold-Increase)” value ([5]; CCCP 6.25 μM) was 12.1 Fold-Increase, the “PARP-Positive Nuclei (Fold-Increase)” value ([5]; CCCP 9.375 μM) was 20.75 Fold-Increase and the “PARP-Positive Nuclei (Fold-Increase)” value ([5]; CCCP 12.5 μM) was 34.45 Fold-Increase. The “cleaved Caspase 3-positive nuclei relative to solvent control (effect in words)” value [6, 9] was “visibly increased; also recorded: higher values”, the “Caspase 3-Positive Nuclei (Fold-Increase)” value ([6]; CCCP 3.125 μM) was 2.63 Fold-Increase and the “Caspase 3-Positive Nuclei (Fold-Increase)” value ([6]; CCCP 4.6875 μM) was 4.33 Fold-Increase. The “Caspase 3-Positive Nuclei (Fold-Increase)” value ([6]; CCCP 6.25 μM) was 5.86 Fold-Increase, the “Caspase 3-Positive Nuclei (Fold-Increase)” value ([6]; CCCP 9.375 μM) was 9.13 Fold-Increase and the “Caspase 3-Positive Nuclei (Fold-Increase)” value ([6]; CCCP 12.5 μM) was 18.83 Fold-Increase. For the same molecule, the “in vitro micronucleus results” value [1, 8] was “positive”.
For Nc1ccn([C@@H]2O[C@H](CO)[C@@H](O)[C@@H]2O)c(=O)n1 [arabinofuranosyl cytidine], the “in vitro micronucleus results” value [1, 8] was “positive”.
For COC(=O)Nc1nc2ccccc2[nH]1 [carbendazim], the “in vitro micronucleus results” value [1] was “positive”.
In the case of NC(=O)NO [hydroxyurea], the “in vitro micronucleus results” value [1] is reported as “positive”.
tunicamycin was tested, and the “in vitro micronucleus results” value [1, 8] was “positive”.
In the case of CC[C@@]1(O)C(=O)OCc2c1cc1n(c2=O)Cc2cc3ccccc3nc2-1 [camptothecin], the “in vitro micronucleus results” value [1, 8] is reported as “positive”.
For CC/C(=C(/CC)c1ccc(O)cc1)c1ccc(O)cc1 [diethylstilbestrol], the “in vitro micronucleus results” value [1, 8] was “positive”.
With [H]/N=C(/N)N/C(=N/[H])NCCc1ccccc1 [phenformin HCl] the “in vitro micronucleus results” value [1, 8] was “positive”.
In the case of COc1cc([C@@H]2c3cc4c(cc3[C@@H](O[C@@H]3O[C@@H]5CO[C@@H](C)O[C@H]5[C@H](O)[C@H]3O)[C@H]3COC(=O)[C@H]23)OCO4)cc(OC)c1O [etoposide], the “in vitro micronucleus results” value [1] is reported as “positive”.
For COc1ccc(C2=N[C@@H](c3ccc(Cl)cc3)[C@@H](c3ccc(Cl)cc3)N2C(=O)N2CCNC(=O)C2)c(OC(C)C)c1 [nutlin-3], the “in vitro micronucleus results” value [1, 8] was “positive”.
For N.N.[Cl][Pt][Cl] [Cisplatin, cisplatin], the “absolute and relative nuclei counts (effect in words)” value [7] was “reduced in a cisplatin concentration-dependent manner”, the “anti-cleaved PARP positive chromatin (effect in words)” value [7] was “increased in a cisplatin concentration-dependent manner” and the “anti-phospho-H3 positive nuclei (effect in words)” value [7] was “reduced in a cisplatin concentration-dependent manner”. For the same molecule, the “other changes to cell cycle (effect in words)” value [7] was “accumulation of cells in the G2/M phase”, the “shift in anti-γH2AX-associated fluorescence (effect in words)” value [7] was “increased in a cisplatin concentration-dependent manner” and the “in vitro micronucleus results” value [1] was “positive”.
